According to ChEMBL document CHEMBL3608248, “Dimeric Macrocyclic Antagonists of Inhibitor of Apoptosis Proteins for the Treatment of Cancer” (ACS Med Chem Lett, 2015):
Converted amounts (≈) assume the structure as drawn. Blank lines part the entries; values can stand above or below the compound they belong to. The source made the active and inactive calls. The calls are words filed in the database; no cut-off is given here.

How the values were obtained:
physchem = conditions: buffer, pH 7.4
cells = conditions: Homo sapiens, A875, 72 h
in vivo [1] = conditions: Balb/C, mouse, iv, 1 mg/kg
in vivo [2] = conditions: Balb/C, mouse, iv, 1 mg/kg; remark: listed apart in the source
in vivo [3] = conditions: Balb/C, mouse, iv, 1 mg/kg; remark: listed apart in the source
in vivo [4] = conditions: Balb/C, mouse, iv, 1 mg/kg; remark: listed apart in the source
Mus musculus = organism: Mus musculus; conditions: in vivo, iv, 1 mg/kg, 7 h
animal or person [5] = conditions: Homo sapiens, A875, ip, 72 h, read-out: TGI
in vitro [6] = conditions: dog, liver microsomes
HCT-116/VM46 = assay: cells; conditions: Homo sapiens
in vivo [7] = conditions: rat, iv, 1 mg/kg
in vivo [8] = conditions: rat, iv, 1 mg/kg; remark: listed apart in the source
A875 = conditions: Homo sapiens, 50 mg/kg
in vitro [9] = conditions: rat, plasma
in vivo [10] = conditions: rat, iv, 1 mg/kg; remark: listed apart in the source
in vivo [11] = conditions: dog, iv, 0.3 mg/kg
in vivo [12] = conditions: dog, iv, 0.3 mg/kg; remark: listed apart in the source
hERG = hERG (Homo sapiens, UniProt Q12809); assay: in vitro
in vitro [13] = conditions: mouse, plasma
animal or person [14] = conditions: Homo sapiens, A875, ip, 72 h, read-out: TGI; remark: listed apart in the source
in vitro [15] = conditions: human, plasma
in vitro [16] = conditions: mouse, liver microsomes
in vitro [17] = conditions: human, liver microsomes
animal or person [18] = conditions: Homo sapiens, A875, ip, read-out: TGI
HCT-116 = assay: cells; conditions: Homo sapiens
in vitro [19] = conditions: dog, plasma
in vitro [20] = conditions: rat, liver microsomes
in vivo [21] = conditions: dog, iv, 0.3 mg/kg; remark: listed apart in the source

Sequence of hERG (Q12809 whole entry): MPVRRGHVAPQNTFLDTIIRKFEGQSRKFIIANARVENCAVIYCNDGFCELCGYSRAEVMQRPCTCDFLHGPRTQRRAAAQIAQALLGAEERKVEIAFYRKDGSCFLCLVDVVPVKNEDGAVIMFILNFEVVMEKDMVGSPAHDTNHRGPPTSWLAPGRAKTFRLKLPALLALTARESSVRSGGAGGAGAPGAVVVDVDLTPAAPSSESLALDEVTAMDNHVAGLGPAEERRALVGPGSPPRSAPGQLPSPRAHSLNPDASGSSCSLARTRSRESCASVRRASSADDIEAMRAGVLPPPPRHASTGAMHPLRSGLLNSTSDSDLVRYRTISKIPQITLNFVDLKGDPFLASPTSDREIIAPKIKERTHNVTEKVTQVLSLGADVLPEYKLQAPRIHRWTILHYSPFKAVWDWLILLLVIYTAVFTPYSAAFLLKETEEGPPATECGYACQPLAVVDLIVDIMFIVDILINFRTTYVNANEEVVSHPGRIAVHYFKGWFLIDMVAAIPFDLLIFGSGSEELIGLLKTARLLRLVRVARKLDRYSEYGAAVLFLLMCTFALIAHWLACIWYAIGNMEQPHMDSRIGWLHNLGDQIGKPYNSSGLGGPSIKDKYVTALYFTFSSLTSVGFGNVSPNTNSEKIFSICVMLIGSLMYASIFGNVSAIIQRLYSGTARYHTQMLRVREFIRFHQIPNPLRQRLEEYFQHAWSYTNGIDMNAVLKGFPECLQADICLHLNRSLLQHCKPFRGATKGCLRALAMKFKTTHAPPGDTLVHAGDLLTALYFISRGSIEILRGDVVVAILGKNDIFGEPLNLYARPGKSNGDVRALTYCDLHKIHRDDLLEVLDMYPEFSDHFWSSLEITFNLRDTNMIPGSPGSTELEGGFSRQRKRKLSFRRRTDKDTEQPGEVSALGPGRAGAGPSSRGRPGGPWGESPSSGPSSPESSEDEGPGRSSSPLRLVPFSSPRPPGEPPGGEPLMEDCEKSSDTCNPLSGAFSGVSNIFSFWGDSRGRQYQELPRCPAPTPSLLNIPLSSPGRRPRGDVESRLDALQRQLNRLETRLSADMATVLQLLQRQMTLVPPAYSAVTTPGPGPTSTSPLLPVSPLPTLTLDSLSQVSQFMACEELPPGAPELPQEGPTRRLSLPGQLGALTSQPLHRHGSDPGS

SMILES: CN[C@@H](C)C(=O)N[C@H](C(=O)N1C[C@@H]2C[C@H]1C(=O)N[C@@H](Cc1ccc3ccccc3c1)C(=O)N[C@H](C(=O)O)Cc1ccc(cc1)OCc1cn(nn1)[C@H]1C[C@@H](C(=O)N[C@@H](Cc3ccc4ccccc4c3)C(=O)N[C@H](c3nnn[nH]3)Cc3ccc(cc3)OCc3cn2nn3)N(C(=O)[C@@H](NC(=O)[C@H](C)NC)C(C)(C)C)C1)C(C)(C)C
- IC50 (cells): 83 nM

SMILES: CN[C@@H](C)C(=O)N[C@H](C(=O)N1C[C@@H]2C[C@H]1C(=O)N[C@@H](Cc1ccc3ccccc3c1)C(=O)N[C@H](C(=O)O)Cc1ccc(cc1)OCc1cn(nn1)[C@H]1C[C@@H](C(=O)N[C@@H](Cc3ccc4ccccc4c3)C(=O)N[C@H](C(=O)O)Cc3ccc(cc3)OCc3cn2nn3)N(C(=O)[C@@H](NC(=O)[C@H](C)NC)C(C)(C)C)C1)C(C)(C)C
- Vd (in vivo [2]): 0.3 L/kg
- AUC (Mus musculus): 1.55 µM·h
- solubility (physchem): 130 µg/mL (≈ 86.3 µM)
- IC50 (cells): 73 nM

SMILES: CN[C@@H](C)C(=O)N[C@H](C(=O)N1C[C@H]2C/C=C/COc3ccc(cc3)C[C@@H](C(=O)O)NC(=O)[C@H](Cc3ccc4ccccc4c3)NC(=O)[C@@H]3C[C@@H](CN3C(=O)[C@@H](NC(=O)[C@H](C)NC)C(C)(C)C)n3cc(nn3)COc3ccc(cc3)C[C@@H](NS(=O)(=O)C3CC3)NC(=O)[C@H](Cc3ccc4ccccc4c3)NC(=O)[C@@H]1C2)C(C)(C)C
- IC50 (cells): 51 nM

SMILES: CN[C@@H](C)C(=O)N[C@H](C(=O)N1C[C@@H]2C[C@H]1C(=O)N[C@@H](Cc1ccc3ccccc3c1)C(=O)N[C@H](NS(=O)(=O)C1CC1)Cc1ccc(cc1)OCc1cn(nn1)[C@H]1C[C@@H](C(=O)N[C@@H](Cc3ccc4ccccc4c3)C(=O)N[C@H](C(=O)O)Cc3ccc(cc3)OCc3cn2nn3)N(C(=O)[C@@H](NC(=O)[C@H](C)NC)C(C)(C)C)C1)C(C)(C)C
- AUC(0-t) at 7 h (in vivo [1]): 5.85 µM·h
- Vd (in vivo [2]): 0.1 L/kg
- half-life (in vivo [3]): 1 h
- IC50 (cells): 39 nM
- clearance (in vivo [4]): 1.5 mL/min/kg

SMILES: CN[C@@H](C)C(=O)N[C@H](C(=O)N1C[C@H]2CCCCOc3ccc(cc3)C[C@@H](C(=O)O)NC(=O)[C@H](Cc3ccc4ccccc4c3)NC(=O)[C@@H]3C[C@@H](CN3C(=O)[C@@H](NC(=O)[C@H](C)NC)C(C)(C)C)n3cc(nn3)COc3ccc(cc3)C[C@@H](NS(=O)(=O)C3CC3)NC(=O)[C@H](Cc3ccc4ccccc4c3)NC(=O)[C@@H]1C2)C(C)(C)C
- inhibition in vivo at 5 mg/kg (animal or person [5]): > 100%
- AUC(0-t) at 7 h (in vivo [1]): 4.49 µM·h
- half-life (in vitro [6]): > 2 h
- IC50 (HCT-116/VM46): 11 nM
- half-life (in vivo [3]): 1.7 h
- clearance (in vivo [7]): 6.2 mL/min/kg
- half-life (in vivo [8]): 1 h
- solubility (physchem): 50 µg/mL (≈ 32.1 µM)
- TGI (A875): Active
- fraction unbound (in vitro [9]): 0.019
- AUC(0-t) at 7 h (in vivo [10]): 1.71 µM·h
- clearance (in vivo [11]): 0.4 mL/min/kg
- half-life (in vivo [12]): 4.7 h
- inhibition at 30 um (hERG): 9%
- IC50 (cells): 19 nM
- fraction unbound (in vitro [13]): 0.058
- inhibition in vivo at 2 mg/kg (animal or person [14]): 67%
- fraction unbound (in vitro [15]): 0.075
- half-life (in vitro [16]): > 2 h
- half-life (in vitro [17]): > 2 h
- inhibition in vivo at 5 mg/kg (animal or person [18]): 80%
- IC50 (HCT-116): 92 nM
- fraction unbound (in vitro [19]): 0.024
- half-life (in vitro [20]): 1.4 h
- clearance (in vivo [4]): 2.1 mL/min/kg
- AUC(0-t) at 7 h (in vivo [21]): 8.43 µM·h

More lines, now with the values ahead:

- solubility (physchem): < 10 µg/mL
- IC50 (cells): 15 nM
SMILES: CN[C@@H](C)C(=O)N[C@H](C(=O)N1C[C@H]2CCCCOc3ccc(cc3)C[C@@H](C(=O)NS(=O)(=O)C3CC3)NC(=O)[C@H](Cc3ccc4ccccc4c3)NC(=O)[C@@H]3C[C@H](CCCCOc4ccc(cc4)C[C@@H](C(=O)O)NC(=O)[C@H](Cc4ccc5ccccc5c4)NC(=O)[C@@H]1C2)CN3C(=O)[C@@H](NC(=O)[C@H](C)NC)C(C)(C)C)C(C)(C)C

- IC50 (cells): 690 nM
SMILES: CN[C@@H](C)C(=O)N[C@H](C(=O)N1C[C@@H]2C[C@H]1C(=O)N[C@@H](Cc1ccc3ccccc3c1)C(=O)N[C@H](C(=O)OC)Cc1ccc(cc1)OCc1cn(nn1)[C@H]1C[C@@H](C(=O)N[C@@H](Cc3ccc4ccccc4c3)C(=O)N[C@H](C(=O)OC)Cc3ccc(cc3)OCc3cn2nn3)N(C(=O)[C@@H](NC(=O)[C@H](C)NC)C(C)(C)C)C1)C(C)(C)C

- AUC(0-t) at 7 h (in vivo [1]): 2.35 µM·h
- Vd (in vivo [2]): 0.3 L/kg
- half-life (in vivo [3]): 0.9 h
- IC50 (cells): 79 nM
- clearance (in vivo [4]): 3.6 mL/min/kg
SMILES: CN[C@@H](C)C(=O)N[C@H](C(=O)N1C[C@@H]2C[C@H]1C(=O)N[C@@H](Cc1ccc3ccccc3c1)C(=O)N[C@H](NS(=O)(=O)C1CC1)Cc1ccc(cc1)OCc1cn(nn1)[C@H]1C[C@@H](C(=O)N[C@@H](Cc3ccc4ccccc4c3)C(=O)N[C@H](NS(=O)(=O)C3CC3)Cc3ccc(cc3)OCc3cn2nn3)N(C(=O)[C@@H](NC(=O)[C@H](C)NC)C(C)(C)C)C1)C(C)(C)C

- IC50 (cells): 310 nM
SMILES: CN[C@@H](C)C(=O)N[C@H](C(=O)N1C[C@@H]2C[C@H]1C(=O)N[C@@H](Cc1ccc3ccccc3c1)C(=O)N[C@H](C(=O)O)Cc1ccc(cc1)OCc1cn(nn1)[C@H]1C[C@@H](C(=O)N[C@@H](Cc3ccc4ccccc4c3)C(=O)N[C@H](C(=O)OC)Cc3ccc(cc3)OCc3cn2nn3)N(C(=O)[C@@H](NC(=O)[C@H](C)NC)C(C)(C)C)C1)C(C)(C)C

- IC50 (cells): > 1000 nM
SMILES: C=CCOc1ccc(C[C@H](NC(=O)[C@H](Cc2ccc3ccccc3c2)NC(=O)[C@@H]2C[C@H](n3cc(COc4ccc(C[C@H](NC(=O)[C@H](Cc5ccc6ccccc6c5)NC(=O)[C@@H]5C[C@H](CC=C)CN5C(=O)[C@@H](NC(=O)[C@H](C)NC)C(C)(C)C)NS(=O)(=O)C5CC5)cc4)nn3)CN2C(=O)[C@@H](NC(=O)[C@H](C)NC)C(C)(C)C)C(=O)O)cc1

- IC50 (cells): 23 nM
SMILES: CN[C@@H](C)C(=O)N[C@H](C(=O)N1C[C@H]2C/C=C/COc3ccc(cc3)C[C@@H](C(=O)NS(=O)(=O)C3CC3)NC(=O)[C@H](Cc3ccc4ccccc4c3)NC(=O)[C@@H]3C[C@H](C/C=C/COc4ccc(cc4)C[C@@H](C(=O)O)NC(=O)[C@H](Cc4ccc5ccccc5c4)NC(=O)[C@@H]1C2)CN3C(=O)[C@@H](NC(=O)[C@H](C)NC)C(C)(C)C)C(C)(C)C
